US5696112A, “Fused heterocyclic azepines as vasopressin antagonists” (American Cyanamid Company, priority 1995, dated 1997)

Key:
[1] = target: T1, Vasopressin V1 Receptor Subtype in Human Platelet Membranes (Homo sapiens, UniProt P37288); test: Binding to V1 Receptor Subtype in Human Platelet membranes
T1 construct: tissue Hudson Valley Blood Services, Westchester Medical Center, Valhalla, N.Y; host or cells: human platelet membranes from frozen platelet rich plasma
Method: Radioligand Binding Experiments with Human Platelet Membranes
Platelet Source: Hudson Valley Blood Services, Westchester Medical Center, Valhalla, N.Y.
Platelet Membrane Preparation:
Frozen platelet rich plasma (PRP), received from the Hudson Valley Blood Services are thawed to room temperature. The tubes containing the PRP are centrifuged at 16,000×g for 10 min. at 4° C. and the supernatant fluid discarded. The platelets resuspended in an equal volume of 50.0 mMTris.HCl, pH 7.5 containing 120 mM NaCl and 20.0 mM EDTA. The suspension is recentrifuged at 16,000×g for 10 min. This washing step is repeated one more time. The wash is discarded and the lysed pellets homogenized in low ionic strength buffer of Tris.HCl, 5.0 mM, pH 7.5 containing 5.0 mM EDTA. The homogenate is centrifuged at 39,000×g for 10 min. The resulting pellet is resuspended in Tris.HCl buffer, 70.0 mM, pH 7.5 and recentrifuged at 39,000×g for 10 min. The final pellet is resuspended in 50.0 mM Tris.HCl buffer pH 7.4 containing 120 mM NaCl and 5.0 mM HCl to give 1.0-2.0 mg protein per ml of suspension.
Binding to Vasopressin V1 Receptor Subtype in Human Platelet Membranes:
In wells of a 96 well format microtiter plate, add 100 μl of 50.0 mM Tris.HCl buffer containing 0.2% BSA and a mixture of protease inhibitors (aprotinin, leupeptin etc.). Then add 20 μl of [^3 H]Ligand: (Manning or Arg^8 Vasopressin), to give final concentrations ranging from 0.01 to 10.0 nM. Initiate the binding by adding 80.0 μl of platelet suspension (approx. 100 μg protein). Mix all reagents by pipetting the mixture up and down a few times. Non-specific binding is measured in the presence of 1.0 μM of unlabeled ligand (Manning or Arg^8 Vasopressin). Let the mixture stand undisturbed at room temperature for ninety (90) min. Upon this time, rapidly filter off the incubate under vacuum suction over GF/B filters, using a Brandel® Harvester. Determine the radioactivity caught on the filter disks by the addition of liquid scintillant and counting in a liquid scintillator

[2] = target: T2, Human V2 Vasopressin Receptor (Homo sapiens, UniProt P30518); test: Binding to Membranes of Mouse Fibroblast Cell Line (LV-2) Transfected with the cDNA Expressing the Human V2 Receptor; settings: LV-2 cell membranes
T2 construct: expressed in transfected cells; host or cells: mouse fibroblast cell line LV-2
T2 sequence (P30518 whole entry): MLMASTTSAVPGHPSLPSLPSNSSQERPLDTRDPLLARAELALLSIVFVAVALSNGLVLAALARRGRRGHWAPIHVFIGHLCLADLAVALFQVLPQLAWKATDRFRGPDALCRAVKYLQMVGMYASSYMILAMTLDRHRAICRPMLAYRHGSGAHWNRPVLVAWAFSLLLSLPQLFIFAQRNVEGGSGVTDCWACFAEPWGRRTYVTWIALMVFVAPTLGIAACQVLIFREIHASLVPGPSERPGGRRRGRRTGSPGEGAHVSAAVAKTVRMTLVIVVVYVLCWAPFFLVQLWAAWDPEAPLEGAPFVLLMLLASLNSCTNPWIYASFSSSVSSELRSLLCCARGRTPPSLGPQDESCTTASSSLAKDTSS
Method: Binding to Membranes Of Mouse Fibroblast Cell Line (LV-2) Transfected with the cDNA expressing the Human V2 Vasopressin Receptor
Flasks of 175 ml capacity, containing attached cells grown to confluence are cleared of culture medium by aspiration. The flasks containing the attached cells are rinsed with 2×5 ml of phosphate buffered saline (PBS) and the liquid aspirated off each time. Finally, 5 ml of an enzyme free dissociation Hank's based solution (Specialty Media, Inc., Lafayette, N.J.) is added and the flasks are left undisturbed for 2 min. The content of all flasks is poured into a centrifuge tube and the cells pelleted at 300×g for 15 min. The Hank's based solution is aspirated off and the cells homo-genized with a polytron at setting #6 for 10 sec in 10.0 mM Tris.HCl buffer, pH 7.4 containing 0.25M sucrose and 1.0 mM EDTA. The homogenate is centrifuged at 1500×g for 10 min to remove ghost membranes. The supernatant fluid is centrifuged at 100,000×g for 60 min to pellet the receptor protein. Upon completion, the pellet is resuspended in a small volume of 50.0 mM Tris.HCl buffer, pH 7.4. The protein content is determined by the Lowry method and the receptor membranes are suspended in 50.0 mM Tris.HCl buffer containing 0.1 mM phenylmethylsulfonylfluoride (PMSF) and 0.2% bovine serum albumin (BSA) to give 2.5 mg receptor protein per ml of suspension.
For binding experiments, the following is added in μl volume to wells of a 96 well format of a microtiter plate: 100.0 μl of 100.0 mM Tris.HCl buffer containing 0.2% heat inactivated BSA, 10.0 mM MgCl2 and a mixture of protease inhibitors: leupeptin, 1.0 mg %; aprotinin, 1.0 mg %; 1,10-phenanthroline, 2.0 mg %; trypsin inhibitor, 10.0 mg % and 0.1 mM PMSF, 20.0 μl of [^3 H]Arginine^8, vasopressin (S.A. 75.0 Ci/mmole) at 0.8 nM and the reaction initiated by the addition of 80.0 μl of tissue membranes (200.0 μg tissue protein). The plates are left undisturbed on the bench top for 120 min to reach equilbrium. Non-specific binding is assessed in the presence of 1.0 μM of unlabeled ligand, added in 20 μl volume. For test compounds, these are solubilized in 50% dimethylsulfoxide (DMSO) and added in 20.0 μl volume to a final incubation volume of 200 μl . Upon completion of binding, the content of each well is filtered off, using a Brandel® cell Harvester (Gaithersburg, Md.). The radioactivity trapped on the filter disk by the ligand-receptor complex is assessed by liquid scintillation counting in a Packard LS Counter, with an efficiency of 65% for tritium. The data are analyzed for IC50 values by the LUNDON-2 program for competition (LUNDON SOFTWARE, OH).

T1 sequence (P37288 whole entry): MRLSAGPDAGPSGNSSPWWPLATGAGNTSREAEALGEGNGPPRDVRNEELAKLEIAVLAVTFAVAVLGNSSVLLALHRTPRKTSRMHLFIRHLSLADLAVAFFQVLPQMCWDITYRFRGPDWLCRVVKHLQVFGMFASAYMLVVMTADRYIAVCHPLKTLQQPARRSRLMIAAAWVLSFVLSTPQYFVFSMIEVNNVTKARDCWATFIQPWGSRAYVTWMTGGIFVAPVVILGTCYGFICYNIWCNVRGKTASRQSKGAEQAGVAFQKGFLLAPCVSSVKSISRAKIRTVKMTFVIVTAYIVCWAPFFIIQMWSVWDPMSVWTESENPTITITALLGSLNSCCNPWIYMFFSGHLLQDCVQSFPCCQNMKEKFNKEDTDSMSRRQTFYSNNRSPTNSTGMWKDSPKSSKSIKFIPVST

IC50 [1] [µM]	IC50 [2] [µM]	SMILES
0.68	0.022	O=C(Nc1ccc(C(=O)N2CCCCc3sccc32)c(Cl)c1)c1ccc(Cl)cc1Cl [Example 68, N-[4-[(5,6,7,8-Tetrahydro-4H-thieno[3,2-b]azepin-4-yl)carbonyl]-3-chlorophenyl]-2,4-dichlorobenzamide]
0.11	0.0034	Cc1ccc(F)cc1C(=O)Nc1ccc(C(=O)N2CCCCc3sccc32)c(Cl)c1 [Example 70, N-[4-[(5,6,7,8-Tetrahydro-4H-thieno[3,2-b]azepin-4-yl)carbonyl]-3-chlorophenyl]-5-fluoro-2-methylbenzamide]
0.19	0.004	O=C(Nc1ccc(C(=O)N2CCCCc3sc(Cl)cc32)cc1)c1c(Cl)cccc1Cl [Example 95, N-[4-[(2-Chloro-5,6,7,8-tetrahydro-4H-thieno[3,2-b]azepin-4-yl)carbonyl]phenyl]-2,6-dichlorobenzamide]
0.18	0.0022	O=C(Nc1ccc(C(=O)N2CCCCc3sccc32)c(Cl)c1)c1ccc(F)cc1Cl [Example 183]
